Columns and labels:
Format in all cases: in vivo
[1] = system: Oryza sativa (ORYSA); assay: Post-emergence crop plant compatibility, greenhouse pot test (also comparative test C); conditions: vs untreated controls
How it was run: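 Rice and other crops sprayed post-emergence at one-leaf stage (2–3 weeks after sowing) with WP or EC formulations plus 0.5% additive at 600 l/ha water. Visual rating about 3 weeks later versus untreated controls (100% = dead, 0% = like control); suffixes a–c denote different doses.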

[2] = system: Matricaria inodora (MATIN); assay: Post-emergence herbicidal action, greenhouse pot test (also comparative test C)
How it was run: (§1)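 Green parts of one-leaf-stage plants are sprayed at 600 l/ha with formulated compound plus 0.5% additive, then kept under optimum greenhouse conditions for about 3 weeks. Damage is scored visually, where 100% means dead plants and 0% means no difference from controls.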

[3] = system: Echinochloa crus-galli (ECHCG); assay: as above; conditions: dosage 20 g/ha
How it was run: as §1

[4] = system: Setaria viridis (SETVI); assay: as above
How it was run: as §1

[5] = system: Alopecurus myosuroides (ALOMY); assay: as above; conditions: 20 g/ha, rated visually after about 3 weeks vs untreated controls, 100% = plants have died
How it was run: as §1

[6] = system: Glycine max (GLXMA); assay: Post-emergence crop plant compatibility, greenhouse pot test
How it was run: (§2)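 Greenhouse-grown crop plants sprayed post-emergence at the one-leaf stage with WP or EC formulations plus 0.5% additive, at 600 l/ha water. Damage rated visually after about 3 weeks versus untreated controls (0% = like control, 100% = dead); suffixes a/b/c denote different dosages.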

[7] = system: Triticum aestivum (TRZAS); assay: as above; conditions: vs untreated controls
How it was run: as §2

[8] = system: Zea mays (ZEAMX); assay: as above; conditions: vs untreated controls
How it was run: as §2

[9] = system: Amaranthus retroflexus (AMARE); assay: Post-emergence herbicidal action, greenhouse pot test; conditions: rated visually after about 3 weeks vs untreated controls, 100% = plants have died
How it was run: (§3)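 Greenhouse-grown weeds in sandy loam were sprayed post-emergence at the one-leaf stage, 2–3 weeks after sowing. Compounds were formulated as WP or EC in water with 0.5% additive at 600 l/ha, at rates of 20 g/ha or less. Visual rating after about 3 weeks used a scale from 0% (like untreated control) to 100% (plants dead).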

[10] = system: Pharbitis purpurea (PHBPU); assay: as above
How it was run: as §3

[11] = system: Polygonum convolvulus (POLCO); assay: as above
How it was run: as §3

[12] = system: Viola tricolor (VIOTR); assay: as above
How it was run: as §3

[13] = system: Stellaria media (STEME); assay: as above
How it was run: as §3

[14] = system: Abutilon theophrasti (ABUTH); assay: as above; conditions: rated visually after about 3 weeks vs untreated controls, 100% = plants have died
How it was run: as §3

[15] = system: Veronica persica (VERPE); assay: as above
How it was run: as §3

For `COCCOC(=O)C(C)Oc1ccccc1Sc1cc(-n2c(=O)cc(C(F)(F)F)n(C)c2=O)c(F)cc1Cl` (racemic) [I.2-1, 2-Methoxyethyl (2RS)-2-[2-({2-chloro-4-fluoro-5-[3-methyl-2,6-dioxo-4-(trifluoromethyl)-3,6-dihydropyrimidin-1(2H)-yl]phenyl}sulfanyl)phenoxy]propanoate], the “Post-emergence action against ORYSA (crop plant compatibility)” value (“Post-emergence action against ORYSA” for short) ([1]; 1.25 g/ha) was 10%, the “Post-emergence action against ORYSA” value ([1]; 5 g/ha) was 10% and the pest or weed control at 5 g/ha ([2]; Tripleurospermum inodorum, 504 h, dosage 5 g/ha, read-out: Post-emergence action against MATIN in %) was 80%. It also gave a pest or weed control at 20 g/ha ([2]; Tripleurospermum inodorum, 504 h, dosage 20 g/ha, read-out: Post-emergence action against MATIN in %) of 100%, a pest or weed control at 20 g/ha ([3]; Echinochloa crus-galli, 504 h, read-out: Post-emergence action against ECHCG in %) of 100% and a pest or weed control at 20 g/ha ([4]; Setaria viridis, 504 h, 20 g/ha, read-out: Post-emergence action against SETVI) of 100%. For the same molecule, the pest or weed control at 1.25 g/ha ([4]; Setaria viridis, 504 h, dosage 1.25 g/ha, read-out: Post-emergence action against SETVI in %) was 100%, the pest or weed control at 5 g/ha ([4]; Setaria viridis, 504 h, dosage 5 g/ha, read-out: Post-emergence action against SETVI in %) was 100% and the pest or weed control at 20 g/ha ([5]; Alopecurus myosuroides, 504 h, read-out: Post-emergence action at 20 g/ha against ALOMY in %) was 80%. The “Post-emergence action against GLXMA in %” value ([6]; 1.25 g/ha) was 0%, the “Post-emergence action against GLXMA in %” value ([6]; 5 g/ha) was 10% and the “Post-emergence action against GLXMA in %” value ([6]; 20 g/ha) was 20%. For the same molecule, the “Post-emergence action against TRZAS (crop plant compatibility)” value (from here on “Post-emergence action against TRZAS”) ([7]; 1.25 g/ha) was 20%, the “Post-emergence action against TRZAS” value ([7]; 5 g/ha) was 20% and the “Post-emergence action against ZEAMX (crop plant compatibility)” value (from here on “Post-emergence action against ZEAMX”) ([8]; 1.25 g/ha) was 10%. For the same molecule, the “Post-emergence action against ZEAMX” value ([8]; 5 g/ha) was 10%, the “Post-emergence action against ZEAMX” value ([8]; 20 g/ha) was 20% and the pest or weed control at 1.25 g/ha ([9]; Amaranthus retroflexus, 504 h, 1.25 g/ha, read-out: Post-emergence action at 1.25 g/ha against AMARE in %) was 100%. It also gave a pest or weed control at 20 g/ha ([9]; Amaranthus retroflexus, 504 h, 20 g/ha, read-out: Post-emergence action at 20 g/ha against AMARE in %) of 100%, a pest or weed control at 1.25 g/ha ([10]; Ipomoea purpurea, 504 h, dosage 1.25 g/ha, read-out: Post-emergence action against PHBPU in %) of 100% and a pest or weed control at 5 g/ha ([10]; Ipomoea purpurea, 504 h, dosage 5 g/ha, read-out: Post-emergence action against PHBPU in %) of 100%. For the same molecule, the pest or weed control at 20 g/ha ([10]; Ipomoea purpurea, 504 h, dosage 20 g/ha, read-out: Post-emergence action against PHBPU in %) was 100%, the pest or weed control at 5 g/ha ([11]; Fallopia convolvulus, 504 h, dosage 5 g/ha, read-out: Post-emergence action against POLCO in %) was 80% and the pest or weed control at 20 g/ha ([11]; Fallopia convolvulus, 504 h, dosage 20 g/ha, read-out: Post-emergence action against POLCO in %) was 100%. For the same molecule, the pest or weed control at 1.25 g/ha ([12]; Viola tricolor, 504 h, 1.25 g/ha, read-out: Post-emergence action against VIOTR) was 100%, the pest or weed control at 5 g/ha ([12]; Viola tricolor, 504 h, 5 g/ha, read-out: Post-emergence action against VIOTR) was 100% and the pest or weed control at 20 g/ha ([12]; Viola tricolor, 504 h, 20 g/ha, read-out: Post-emergence action against VIOTR) was 100%. For the same molecule, the “Post-emergence action against STEME” value ([13]; 1.25 g/ha) was 80%, the “Post-emergence action against STEME” value ([13]; 5 g/ha) was 100% and the “Post-emergence action against STEME” value ([13]; 20 g/ha) was 100%. For the same molecule, the pest or weed control at 5 g/ha ([14]; Abutilon theophrasti, 504 h, 5 g/ha, read-out: Post-emergence action at 5 g/ha against ABUTH in %) was 100%, the pest or weed control at 20 g/ha ([14]; Abutilon theophrasti, 504 h, 20 g/ha, read-out: Post-emergence action at 20 g/ha against ABUTH in %) was 100% and the pest or weed control at 1.25 g/ha ([15]; Veronica persica, 504 h, 1.25 g/ha, read-out: Post-emergence action against VERPE) was 90%. For the same molecule, the pest or weed control at 5 g/ha ([15]; Veronica persica, 504 h, 5 g/ha, read-out: Post-emergence action against VERPE) was 100% and the pest or weed control at 20 g/ha ([15]; Veronica persica, 504 h, 20 g/ha, read-out: Post-emergence action against VERPE) was 100%.
For `Cn1c(C(F)(F)F)cc(=O)n(-c2cc(Sc3ccccc3OCC(=O)OCC3CCOC3)c(Cl)cc2F)c1=O` (racemic) [I.1-72], the “Post-emergence action against ORYSA” value ([1]; 1.25 g/ha) was 10%, the “Post-emergence action against ORYSA” value ([1]; 5 g/ha) was 20% and the “Post-emergence action against MATIN in %” value ([2]; dosage 5 g/ha) was 90%. The “Post-emergence action against MATIN in %” value ([2]; dosage 20 g/ha) was 100%, the “Post-emergence action against ECHCG in %” value [3] was 100% and the “Post-emergence action against SETVI” value ([4]; 20 g/ha) was 100%. The “Post-emergence action against SETVI in %” value ([4]; dosage 1.25 g/ha) was 100%, the “Post-emergence action against SETVI in %” value ([4]; dosage 5 g/ha) was 100% and the “Post-emergence action at 20 g/ha against ALOMY in %” value [5] was 80%. The “Post-emergence action against GLXMA in %” value ([6]; 1.25 g/ha) was 10%, the “Post-emergence action against GLXMA in %” value ([6]; 5 g/ha) was 20% and the “Post-emergence action against TRZAS” value ([7]; 1.25 g/ha) was 20%. For the same molecule, the “Post-emergence action against ZEAMX” value ([8]; 1.25 g/ha) was 10%, the “Post-emergence action against ZEAMX” value ([8]; 5 g/ha) was 20% and the “Post-emergence action at 1.25 g/ha against AMARE in %” value ([9]; 1.25 g/ha) was 80%. The “Post-emergence action at 5 g/ha against AMARE in %” value ([9]; 5 g/ha) was 100%, the “Post-emergence action at 20 g/ha against AMARE in %” value ([9]; 20 g/ha) was 100% and the “Post-emergence action against PHBPU in %” value ([10]; dosage 1.25 g/ha) was 80%. The “Post-emergence action against PHBPU in %” value ([10]; dosage 5 g/ha) was 100%, the “Post-emergence action against PHBPU in %” value ([10]; dosage 20 g/ha) was 100% and the “Post-emergence action against POLCO in %” value ([11]; dosage 1.25 g/ha) was 80%. For the same molecule, the “Post-emergence action against POLCO in %” value ([11]; dosage 5 g/ha) was 100%, the “Post-emergence action against POLCO in %” value ([11]; dosage 20 g/ha) was 100% and the “Post-emergence action against VIOTR” value ([12]; 1.25 g/ha) was 100%. For the same molecule, the “Post-emergence action against VIOTR” value ([12]; 5 g/ha) was 100%, the “Post-emergence action against VIOTR” value ([12]; 20 g/ha) was 100% and the “Post-emergence action against STEME” value ([13]; 5 g/ha) was 100%. For the same molecule, the “Post-emergence action against STEME” value ([13]; 20 g/ha) was 100%, the “Post-emergence action at 1.25 g/ha against ABUTH in %” value ([14]; 1.25 g/ha) was 100% and the “Post-emergence action at 5 g/ha against ABUTH in %” value ([14]; 5 g/ha) was 100%. For the same molecule, the “Post-emergence action at 20 g/ha against ABUTH in %” value ([14]; 20 g/ha) was 100%, the “Post-emergence action against VERPE” value ([15]; 1.25 g/ha) was 100% and the “Post-emergence action against VERPE” value ([15]; 5 g/ha) was 100%. For the same molecule, the “Post-emergence action against VERPE” value ([15]; 20 g/ha) was 100%.
